Test results: patent publication US20190076467A1, “ANTIVIRAL CONJUGATES OF P[…] AND ANTIVIRAL DRUG” (priority 2015, published 2019)

Columns and labels:
[1] = test system: Measles; format: cell-based
[2] = test system: Ebola virus; format: cell-based, Ebola Zaire
[3] = cited from earlier work

Row | Structure (SMILES) | Activity against measles infectivity [1] | Effect on proliferation of Ebola virus (qRT-PCR cycle number) [2] | pKa [3]
1 | NC(=O)c1ncn([C@@H]2O[C@H](CO)[C@@H](O)[C@H]2O)n1 [Ribavirin] | no activity | no measurable effect | –
2 | C=CC(=O)O [acrylic acid] | – | – | 4.5
3 | C=C(C)C(=O)O [methacrylic acid] | – | – | 6.5
